# Test results taken from US20150105252A1, “SUBSTITUTED PYRAZOLES AS HERBICIDES” (E I DU PONT DE NEMOURS AND COMPANY, priority 2013, published 2015).
# What was measured:
# Italian ryegrass = assay: Test A postemergence; assay type: in vivo, Lolium multiflorum
# Procedure, shortened: (§1)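 Pre- and postemergence greenhouse test; loam+sand; cpd in non-phytotox. solvent/surfactant; post at 1–2 leaf, 2–10 cm; visual score ~10 d, 0 = none, 100 = complete control.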
# galium = assay: Test A postemergence; assay type: in vivo, Galium aparine
# Procedure, shortened: as §1
# southern sandbur = assay: Test F postemergence; assay type: in vivo, Cenchrus echinatus; details: scale 0 to 100
# Text: (§2) Seeds of plant species selected from corn (Zea mays), soybean (Glycine max), velvetleaf (Abutilon theophrasti), lambsquarters (Chenopodium album), wild poinsettia (Euphorbia heterophylla), pigweed, palmer (palmer pigweed, Amaranthus palmeri), common waterhemp (Amaranthus rudis), surinam grass (Brachiaria decumbens), large crabgrass (Digitaria sanguinalis), crabgrass, Brazil (Brazilian crabgrass, Digitaria horizontalis), fall panicum (Panicum dichotomiflorum), giant foxtail (Setaria faberii), green foxtail (Setaria viridis), goosegrass (Eleusine indica), johnsongrass (Sorghum halepense), common ragweed (Ambrosia elation), barnyardgrass (Echinochloa crus-galli), southern sandbur (Cenchrus echinatus), arrowleaf sida (Sida rhombifolia), Italian ryegrass (Lolium multiflorum), dayflower, VA (Virginia (VA) dayflower, Commelina virginica), field bindweed (Convolvulus arvensis), cocklebur (common cocklebur, Xanthium strumarium), morningglory (Ipomoea coccinea), nightshade (eastern black nightshade, Solanum ptycanthum), kochia (Kochia scoparia), yellow nutsedge (Cyperus esculentus), and hairy beggarticks (Bidens pilosa), were planted into a silt loam soil and treated preemergence with test chemicals formulated in a non-phytotoxic solvent mixture which included a surfactant.
# (§3) At the same time, plants from these crop and weed species and also horseweed (Canada horseweed, Conyza canadensis), smartweed (ladysthumb smartweed, Polygonum persicaria), waterhemp_RES1, (ALS & Triazine resistant common waterhemp, Amaranthus rudis), and waterhemp_RES2, (ALS & HPPD resistant common waterhemp, Amaranthus rudis) were treated with postemergence applications of test chemicals formulated in the same manner. Plants ranged in height from 2 to 18 cm for postemergence treatments (1- to 4-leaf stage). Treated plants and controls were maintained in a greenhouse for 14 to 21 days, after which time all species were compared to controls and visually evaluated. Plant response ratings, summarized in Table F, are based on a scale of 0 to 100 where 0 is no effect and 100 is complete control. A dash (-) response means no test result.
# field bindweed = assay: Test F postemergence; assay type: in vivo, Convolvulus arvensis; details: scale 0 to 100
# Text: as §2, §3
# corn = assay: Test F postemergence; assay type: in vivo, Zea mays; details: scale 0 to 100
# Text: as §2, §3
# barnyardgrass = assay: Test F postemergence; assay type: in vivo, Echinochloa crus-galli; details: scale 0 to 100
# Text: as §2, §3
# arrowleaf sida = assay: Test F postemergence; assay type: in vivo, Sida rhombifolia; details: scale 0 to 100
# Text: as §2, §3
# soybean = assay: Test F postemergence; assay type: in vivo, Glycine max; details: scale 0 to 100
# Text: as §2, §3
# leafy spurge = assay: Test E preemergence; assay type: in vivo, Euphorbia esula; details: 21 days, scale 0 to 100
# Text: Seeds of plant species selected from bermudagrass (Cynodon dactylon), Surinam grass (Brachiaria decumbens), crabgrass, large (large crabgrass, Digitaria sanguinalis), crabgrass, naked (naked crabgrass, Digitaria nuda), foxtail, green (green foxtail, Setaria viridis), johnsongrass (Sorghum halepense), kochia (Kochia scoparia), morningglory (pitted morningglory, Ipomoea lacunosa), nutsedge, purple (purple nutsedge, Cyperus rotundus), ragweed (common ragweed, Ambrosia elation), mustard, black (black mustard, Brassica nigra), guineagrass (Panicum maximum), dallisgrass (Paspalum dilatatum), barnyardgrass (Echinochloa crus-galli), sandbur (southern sandbur, Cenchrus echinatus), sowthistle (common sowthistle, Sonchus oleraceous), ryegrass, Italian (Italian ryegrass, Lolium multiflorum), signalgrass (broadleaf signalgrass, Brachiaria platyphylla), dayflower, VA (Virginia (VA) dayflower, Commelina virginica), bluegrass (annual bluegrass, Poa annua), quackgrass (Elytrigia repens), mallow (common mallow, Malva sylvestris), buckwheat, wild (wild buckwheat, Polygonum convolvulus), leafy spurge (Euphorbia esula), common chickweed (Stellaria media), wild poinsettia (Euphorbia heterophylla), pigweed, palmer (palmer pigweed, Amaranthus palmeri), and pigweed (redroot pigweed, Amaranthus retroflexus) were planted into a blend of loam soil and sand and treated preemergence with test chemicals formulated in a non-phytotoxic solvent mixture which included a surfactant.
# Treated plants and controls were maintained in a greenhouse for 21 days, after which time all species were compared to controls and visually evaluated. Plant response ratings, summarized in Table E, are based on a scale of 0 to 100 where 0 is no effect and 100 is complete control. A dash (-) response means no test result.
# [1] = Postemergence, 500 g ai/ha, 0 to 100 scale (0 no effect, 100 complete control)
# [2] = postemergence, 125 g ai/ha, about 10 days, visual rating on 0 to 100 scale (0 no effect, 100 complete control)
# [3] = Postemergence, 125 g ai/ha, 0 to 100 scale, 0 no effect, 100 complete control
smiles,measurement,setting,value
CCOc1cc(C(=O)NC2CC2)nn1Cc1ccnc(OC(F)F)c1 [Compound 133],Italian Ryegrass plant response rating,Italian ryegrass; [1],80
same,Italian Ryegrass plant response rating,Italian ryegrass; [2],60
same,Galium plant response rating,galium; [1],90
same,Galium plant response rating,galium; [2],80
CCOc1cc(C(=O)NC(C)C)nn1Cc1ccnc(C(F)(F)F)c1 [Compound 188],"Plant response rating, Southern Sandbur","southern sandbur; Postemergence, 31 g ai/ha",0
same,"Plant response rating, Southern Sandbur","southern sandbur; Postemergence, 125 g ai/ha",50
same,"Plant response rating, Southern Sandbur","southern sandbur; Postemergence, 250 g ai/ha",70
same,"Plant response rating, Southern Sandbur","southern sandbur; postemergence, 62 g ai/ha",20
same,"Plant response rating, Southern Sandbur","southern sandbur; postemergence, 500 g ai/ha",90
same,"Plant response rating, Field Bindweed","field bindweed; Postemergence, 31 g ai/ha",70
same,"Plant response rating, Field Bindweed","field bindweed; Postemergence, 125 g ai/ha",90
same,"Plant response rating, Field Bindweed","field bindweed; Postemergence, 250 g ai/ha",95
same,"Plant response rating, Field Bindweed","field bindweed; postemergence, 62 g ai/ha",70
same,"Plant response rating, Field Bindweed","field bindweed; postemergence, 500 g ai/ha",95
same,"Plant response rating, Corn","corn; Postemergence, 31 g ai/ha",10
same,"Plant response rating, Corn","corn; Postemergence, 125 g ai/ha",60
same,"Plant response rating, Corn","corn; Postemergence, 250 g ai/ha",95
same,"Plant response rating, Corn","corn; postemergence, 62 g ai/ha",20
same,"Plant response rating, Barnyardgrass","barnyardgrass; Postemergence, 31 g ai/ha",0
same,"Plant response rating, Barnyardgrass","barnyardgrass; Postemergence, 125 g ai/ha",50
same,"Plant response rating, Barnyardgrass","barnyardgrass; Postemergence, 250 g ai/ha",60
same,"Plant response rating, Barnyardgrass","barnyardgrass; postemergence, 62 g ai/ha",20
same,"Plant response rating, Barnyardgrass","barnyardgrass; postemergence, 500 g ai/ha",95
same,"Plant response rating, Arrowleaf Sida","arrowleaf sida; Postemergence, 31 g ai/ha",50
same,"Plant response rating, Arrowleaf Sida","arrowleaf sida; Postemergence, 125 g ai/ha",60
same,"Plant response rating, Arrowleaf Sida","arrowleaf sida; Postemergence, 250 g ai/ha",70
same,"Plant response rating, Arrowleaf Sida","arrowleaf sida; postemergence, 62 g ai/ha",50
same,"Plant response rating, Arrowleaf Sida","arrowleaf sida; postemergence, 500 g ai/ha",80
same,"Plant response rating, Soybean","soybean; Postemergence, 31 g ai/ha",98
same,"Plant response rating, Soybean","soybean; Postemergence, 125 g ai/ha",95
same,"Plant response rating, Soybean","soybean; Postemergence, 250 g ai/ha",98
same,"Plant response rating, Soybean","soybean; postemergence, 62 g ai/ha",95
same,"Plant response rating, Soybean","soybean; postemergence, 500 g ai/ha",98
CCOc1cc(C(=O)NC2CC2)nn1Cc1ccnc(C(F)(F)F)c1 [Compound 189],"Plant response rating, Leafy Spurge",leafy spurge; 4 g ai/ha,35
same,"Plant response rating, Leafy Spurge",leafy spurge; 8 g ai/ha,75
same,"Plant response rating, Leafy Spurge",leafy spurge; 16 g ai/ha,100
same,"Plant response rating, Leafy Spurge",leafy spurge; 31 g ai/ha,100
same,"Plant response rating, Leafy Spurge",leafy spurge; 62 g ai/ha,100
CCc1cc(C(=O)NCC(F)(F)F)nn1Cc1cc(OC(F)F)nn1C [Compound 206],Italian Ryegrass plant response rating,Italian ryegrass; [3],0
same,Italian Ryegrass plant response rating,Italian ryegrass; [1],50
same,Galium plant response rating,galium; [3],20
same,Galium plant response rating,galium; [1],80
